Results from patent publication US12527768B2, “Compositions comprising an anti-inflammatory drug and a dicer activator for use in the treatment of neuronal diseases” (NeuroSense Therapeutics Ltd., priority 2017, dated 2026).
Where “and” joins values, the source holds several entries; their conditions need not be identical. Equal values may be shown once. Entries after “also recorded” stand apart in the source; their conditions may differ.

Tests used:
ALS patients = details: clinical trial; cited from earlier work
[1] = test system: SOD1 G93R mutant zebrafish larvae; experiment: Behavioral analysis (DanioVision): locomotor activity, distance moved; type: in vivo, zebrafish (Danio rerio); details: for distance moved, elevation compared to non-treated SOD1 mutant, whole period of measurement: 6 dpf larvae; for distance moved compared to non-treated SOD1 mutant, whole experiment: 10 μM in swimming water; for effect on locomotor activity during all three experimental phases: spontaneous swimming, light/dark challenge, recovery from challenge
Description: (§1) Treatment protocol SOD1 G93R mutant or WT fish were collected and raised according to accepted and approved protocols, see Westerfield M. The Zebrafish Book: a Guide for the Laboratory Use of Zebrafish (Danio rerio) 2000, incorporated herein as reference. Larvae's morphology was observed (heart rate, overall morphology and behavior) at each day.
Two-hundred and forty (240) larvae were selected from the same laying batch to be introduced to three distinct treatments and a control (n=60 per each treatment). First and second treatments were conducted at 3 and 5 days post fertilization (dpf), respectively, when the blood brain barrier (BBB) is fully closed, and the motor neurons (MNs) and neuromuscular junctions (NMJs) are fully developed. The materials were administrated in the swimming water (DB). At day 6, larvae were taken to behavioral analysis using the automated DanioVision™ system. Following analysis, larvae were fixed and whole-mount immunohistochemistry procedure was conducted to be used for high resolution morphological analysis. Treatment protocol is detailed in FIG. 1.
Behavioral analysis DanioVision™, an automated high-throughput tracking system of zebrafish larvae from Noldus Information Technology (Wageningen, the Netherlands), including control of light and dark conditions was used for the measurements and analysis of the results. Each single larvae was put in a single well, with the same volume of swimming water to ensure uniform background. Each animal was tested for its x,y position using dynamic subtraction 30 times per second. The distance each larvae moved in mm was calculated from the x,y position and averaged per time bin of 1 minute (average of 1800 measurements per each 1 minute). The behavioral profile was measured in 3 phases according to changes in environment that we applied, to introduce additional muscle and neurological stress. Spontaneous swimming, light/dark challenge (opto-kinetic response) and recovery from challenge behaviors were recorded and analyzed. All animals from the same treatment: wild type (WT), SOD1 mutant non-treated or treated were averaged per time bin of 1 minute to examine their reaction to additional stress, and then calculated for the whole period of time to get a relative number compared to the non-treated SOD1 mutant swimming behavior. Statistical analysis used was paired Student's t-tests (two-tailed) with two-sample assuming unequal variances. All P-values reported are two-tailed and the significance level was set at 0.05 (*), 0.01 to 0.001 (**) and below 0.001 (***).

[2] = test system: inhibitory interneurons of SOD1 mutants; details: 1 μM; cited from earlier work
RNAi = details: cited from earlier work
Pseudomonas aeruginosa = details: cited from earlier work
[3] = test system: cytochrome P450 (CYP450) 2C9 and 3A4; details: cited from earlier work
[4] = test system: SOD1 G93R mutant zebrafish larvae; experiment: Toxicity analysis of larvae (morphology, cardiovascular system, behavior, mortality); type: in vivo, zebrafish (Danio rerio)
Procedure: as §1
Toxicity analysis Fish were observed during the day of administration and the following days to observe toxicity. Acute toxicity was evaluated for apoptosis/necrosis and cardiovascular system abnormalities (heart rate, morphology, hemorrhage and edema). Head, eyes and overall morphological and behavioral toxicity were recorded according to accepted procedures^28.

[5] = test system: chronic electrode-implanted rats; details: cited from earlier work; for EEG and behavior after intraventricular injection: relatively high dose
ALS mouse models = details: enhancement of DICER activity; cited from earlier work
[6] = 100 μM in swimming water, 0.1% DMSO
[7] = 100 μM, recovery from challenge phase
[8] = 100 μM, spontaneous swimming phase

In the case of `Nc1nc2ccc(OC(F)(F)F)cc2s1` [Riluzole], the “effect on ALS disease progression” value (ALS patients) is given as “modestly slowed ALS progression”, the “distance moved, elevation compared to non-treated SOD1 mutant, whole period of measurement” value ([1]; 1 μM in swimming water) is given as 36% and 36.8% and the “locomotor activity, increase vs non-treated SOD1 mutant, light/dark challenge” value ([1]; 1 μM, light/dark challenge phase (10-20 min)) is given as 32%. The “locomotor activity, increase vs non-treated SOD1 mutant, recovery from challenge” value ([1]; 1 μM, recovery from challenge phase (last 10 minutes)) was 39.7%, the “locomotor activity, increase vs non-treated SOD1 mutant, spontaneous swimming” value ([1]; 1 μM, spontaneous swimming phase (0-10 min)) was 38% and the “neuronal stress in inhibitory interneurons” value [2] was “reduced”.
For `O=C(O)c1cn(C2CC2)c2cc(N3CCNCC3)c(F)cc2c1=O` [Ciprofloxacin], the “distance moved compared to non-treated SOD1 mutant, whole experiment” value ([1]; 0.1% DMSO) was “did not significantly affect locomotor activity; also recorded: not changed”, the “effect on locomotor activity during all three experimental phases” value ([1]; 10 μM) was “nearly no effect” and the “locomotor activity of Ciprofloxacin compared to Enoxacin treatment” value ([1]; 100 μM each, spontaneous swimming and recovery from challenge) was “elevated locomotor activity compared to Enoxacin treatment”. The “distance moved, elevation compared to non-treated SOD1 mutant, whole period of measurement” value [1, 6] was 18% and 17.8%, the “locomotor activity, increase vs non-treated SOD1 mutant, recovery from challenge” value [1, 7] was 33.5% and the “locomotor activity, increase vs non-treated SOD1 mutant, spontaneous swimming” value [1, 8] was 26.2%. For the same compound, the “effect on locomotor activity under dark conditions” value ([1]; 1, 10, 50, 100, 200 and 500 μM) was “nearly no effect”, the “locomotor activity in the phase of recovery from stress, dose response” value ([1]; 50, 100, 200 and 500 μM, second phase of light) was “dose dependent curve that eventually ended in a plateau” and the “effect on spontaneous swimming at high concentrations” value ([1]; 200 and 500 μM, spontaneous swimming phase) was “did not cause elevation in spontaneous swimming”. The “most potent concentration in affecting locomotor activity” value ([1]; tested 1-500 μM) was 100 µM, the RNAi-enhancing activity (RNAi) was “substantial RNAi-enhancing activity” and the “potency against Pseudomonas aeruginosa among quinolones” value (Pseudomonas aeruginosa) was “most potent quinolone”.
For `Cc1ccc(-c2cc(C(F)(F)F)nn2-c2ccc(S(N)(=O)=O)cc2)cc1` [Celecoxib], the metabolism in vivo [3] is listed as “oxidized by cytochrome P450 (CYP450) 2C9 and 3A4 to the inactive metabolite hydroxycelecoxib”, the “distance moved, elevation compared to non-treated SOD1 mutant, whole period of measurement” value ([1]; 1 μM in swimming water) is listed as 6% and the “locomotor effect of Celecoxib at 5 μM” value ([1]; 5 μM, 0.1% DMSO background) is listed as “subtle locomotor decline; also recorded: reduction in locomotor ability”. For the same compound, the “locomotor effect of Celecoxib at 10 μM” value ([1]; 10 μM, 0.3% DMSO background) was “subtle locomotor decline; also recorded: Subtle locomotor reduction”, the “toxicity at high concentration” value ([4]; 30 μM, 0.3% DMSO, SOD1 mutants and WT) was “cardiovascular toxicity and death” and the “toxicity at lower concentrations” value ([4]; below 10 μM (0.3% DMSO) / 5 μM (0.1% DMSO)) was “no toxicity was evident”.
In the case of `CC(=O)Oc1ccccc1C(=O)O.NCCCCC(N)C(=O)O` (racemic) [aspirin DL-lysine], the “EEG and behavior after intraventricular injection” value [5] is given as “spike and wave complex in EEG without showing remarkable behavioral changes”.
With `CCn1cc(C(=O)O)c(=O)c2cc(F)c(N3CCNCC3)nc21` [Enoxacin] the “distance moved compared to non-treated SOD1 mutant, whole experiment” value ([1]; 0.1% DMSO) was “not changed”, the “effect on locomotor activity during all three experimental phases” value ([1]; 10 μM) was “nearly no effect” and the “distance moved, elevation compared to non-treated SOD1 mutant, whole period of measurement” value [1, 6] was 20%. For the same compound, the “distance moved, elevation compared to non-treated SOD1 mutant, whole period of measurement” value ([1]; 100 μM in swimming water, 0.1% DMSO, listed as enoxacin) was 19.9%, the “locomotor activity, increase vs non-treated SOD1 mutant, light/dark challenge” value ([1]; 100 μM, light/dark challenge phase) was 21% and the “locomotor activity, increase vs non-treated SOD1 mutant, recovery from challenge” value [1, 7] was 17.6%. For the same compound, the “locomotor activity, increase vs non-treated SOD1 mutant, spontaneous swimming” value [1, 8] was 20.1%, the “epileptogenic activity, EEG” value ([5]; intraventricular, 50 and 100 micrograms) was “potent epileptogenic activity” and the “drug induced effects in morphology or mortality” value ([4]; Enoxacin 10 μM and 100 μM, 0.1% DMSO) was “no drug induced effects in morphology or mortality were observed”. For the same compound, the “effect in two independent ALS mouse models” value (ALS mouse models) was “beneficial in vivo”.
In the case of `CCOC(=O)Cc1ccc(-c2ccccc2)cc1` [Ferubinac ethyl], the “EEG and behavior after intraventricular injection” value [5] is listed as “spike and wave complex in EEG without showing remarkable behavioral changes”.
